Test results: patent publication US20230337677A1, “ARYL AND PYRIDYL AMIDE PESTICIDES AND COMPOSITIONS THEREOF” (University of Florida Research Foundation, Incorporated, priority 2019, published 2023)

Columns and labels:
Type in all cases: in vivo
[1] = tested on: Anopheles gambiae G3 sensitive strain; test: Topical toxicity (24 hour mortality), An. gambiae G3
Protocol: (§1) The Aedes aegypti strains Orlando (sensitive) as well as the Puerto Rico (PR, resistant to permethrin) were used. The Anopheles gambiae (G3 sensitive strain, as well as Akron kdr (Akdr) strain, resistant to pyrethroids were also assessed. The larvae were provided by the USDA, Gainesville Fl, and raised in a pan with tap water maintained at 28° C. Larvae were fed a ground liver and yeast mixture, and pupae were placed in emergence cages. Adults were held at 28° C. and provided with cotton balls soaked in 10% sugar water for rearing and for all bioassays.
(§2) Female adults from 3 to 6 days were used for the experiments. The drug was dissolved in ethanol and then applied with a micro-applicator on the thorax, between the legs: 200 nL of drug per female mosquito, with different concentrations of the drug; 10 mosquitos were treated together per concentration per replicate, and put together in a small container with free access to sweet water. Mortality, i.e. no visible movement, was assessed 24 hours after treatment. Every compound was assessed on at least 3 different cohorts of mosquitoes, and the LD50 values and slopes were determined with Probit analysis, corrected with Abbott's formula.

[2] = tested on: Anopheles gambiae Akron kdr (Akdr) strain, resistant to pyrethroids; test: Topical toxicity (24 hour mortality), An. gambiae Akdr; details: for An. gambiae RR (resistance ratio): 24 h LD50 resistant strain (AKDR)/24 h LD50 susceptible strain (G3)
Protocol: as §1, §2

[3] = tested on: Aedes aegypti strain Orlando (sensitive); test: Topical toxicity (24 hour mortality), Ae. aegypti Orlando
Protocol: as §1, §2

[4] = topical application, 24 h mortality, female adults, susceptible strain G3
[5] = topical application, 24 h mortality, female adults, pyrethroid-resistant Akdr strain
[6] = topical application, 24 h mortality, female adults, susceptible Orlando strain

Row | SMILES | An. gambiae G3 LD50 [1, 4] | An. gambiae AKDR LD50 [2, 5] | Ae. aegypti OR LD50 [3, 6] | An. gambiae RR (resistance ratio) [2] | An. gambiae G3 LD50 ([1]; Table 5, topical, 24 h) | An. gambiae AKDR LD50 ([2]; Table 5, topical, 24 h) | Ae. aegypti OR LD50 ([3]; Table 5, topical, 24 h)
1 | O=C(Nc1cc(Br)nc(Br)c1)C(F)(F)C(F)(F)F [GMR041] | ~100 ng/mg | ~100 ng/mg | 50 ng/mg |  |  |  | 
2 | O=C(Nc1cc(Br)nc(Br)c1)C(F)(F)C(F)(F)C(F)(F)F [GMR042] | 11.4 ng/mg | 4.7 ng/mg | 24 ng/mg | 0.4 |  |  | 
3 | O=C(Nc1cc(F)nc(F)c1)C(F)F [GMR043] | >100 ng/mg | >100 ng/mg | 2480 ng/mg |  |  |  | 
4 | O=C(Nc1cc(F)nc(F)c1)C(F)(F)F [GMR044] | >100 ng/mg | >100 ng/mg | 1996 ng/mg |  |  |  | 
5 | O=C(Nc1cc(F)nc(F)c1)C(F)(F)C(F)(F)F [GMR045] | >100 ng/mg | >100 ng/mg | 302 ng/mg |  |  |  | 
6 | O=C(Nc1cc(F)nc(F)c1)C(F)(F)C(F)(F)C(F)(F)F [GMR046] | >100 ng/mg | >100 ng/mg | 300 ng/mg |  |  |  | 
7 | Cc1cc(NC(=O)C(F)F)cc(C)n1 [GMR047] | >100 ng/mg | >100 ng/mg | >3000 ng/mg |  |  |  | 
8 | Cc1cc(NC(=O)C(F)(F)F)cc(C)n1 [GMR048] | >100 ng/mg | >100 ng/mg | >1500 ng/mg |  |  |  | 
9 | Cc1cc(NC(=O)C(F)(F)C(F)(F)F)cc(C)n1 [GMR049] | >100 ng/mg | >100 ng/mg | >3000 ng/mg |  |  |  | 
10 | Cc1cc(NC(=O)C(F)(F)C(F)(F)C(F)(F)F)cc(C)n1 [GMR050] | >100 ng/mg | >100 ng/mg | >3000 ng/mg |  |  |  | 
11 | O=C(Nc1cc(Cl)nc(Cl)c1)C(F)(F)C(F)(F)C(F)(F)C(F)(F)C(F)(F)F [GMR051] | 5.2 ng/mg | 3.7 ng/mg | 23.4 ng/mg | 0.7 |  |  | 
12 | O=C(CCCC(F)(F)F)Nc1cc(Cl)nc(Cl)c1 [GMR052] | >100 ng/mg | >100 ng/mg | 2743 ng/mg |  |  |  | 
13 | O=C(Nc1cc(F)nc(F)c1)C(F)(F)C(F)(F)C(F)(F)C(F)(F)C(F)(F)F [GMR072] | 11.00 ng/mg | 17 ng/mg | 114 ng/mg | 1.5 |  |  | 
14 | O=C(Nc1c(Cl)c(Cl)nc(Cl)c1Cl)C(F)(F)C(F)(F)C(F)(F)F [GMR074] | 11.00 ng/mg | 8.6 ng/mg | 29 ng/mg | 0.8 |  |  | 
15 | O=C(Nc1cc(Cl)nc(Cl)c1)C(F)(F)C(F)(F)OC(F)(F)F [GMR084] | 6.04 ng/mg | 11.00 ng/mg | 17.8 ng/mg | 1.8 |  |  | 
16 | CC(C)(C)OC(=O)N(C(=O)C(F)(F)C(F)(F)C(F)(F)F)c1cc(Cl)nc(Cl)c1 [GMR087] | 23.00 ng/mg | 20.50 ng/mg | 54.6 ng/mg | 0.9 |  |  | 
17 | N#CC(F)(F)C(=O)Nc1cc(Cl)nc(Cl)c1 [GMR101] | >100 ng/mg | >100 ng/mg | 1841 ng/mg |  |  |  | 
18 | O=C(Nc1cc(Cl)nc(C(F)(F)F)c1)C(F)(F)C(F)(F)C(F)(F)F [compound 56] |  |  |  |  | 6.50 ng/mg | 5.30 ng/mg | 17.30 ng/mg
